The test system of experiment [1] is rats subjected to middle cerebral artery occlusion (MCAo). Briefly: Neurologic Severity Scale (NSS) after MCAo, combination study. Type of experiment: in vivo, rat. Particulars: treatment 1 day after stroke; NN 0.4 mg/kg IP, hMSCs 1×10^6 cells iv; vs control (PBS). The procedure:
(§1) Male Wistar rats (n=32) were subjected to middle cerebral artery occlusion (MCAo) and were randomized with 8 rats in four treatment groups, with treatment initiated 1 day after stroke. Groups included: 1) phosphate buffered saline (PBS); 2) subtherapeutic DETA-NONOate (NN) at a dose of 0.4 mg/kg (IP); 3) subtherapeutic hMSCs (1×10^6 cells-iv); and 4) combination subtherapeutic NN and hMSCs. Functional outcome measurements consisted of a Neurologic Severity Scale (18 point scale) (NSS) and the Adhesive Removal Test performed prior to stroke, immediately before treatment and at 7 and 14 days after treatment. […] However, there was an overall hMSC effect on NSS at 14 days.

Experiment [2] has the same test system. Description: Adhesive Removal Test after MCAo, combination study. Type of experiment: in vivo, rat. The note with it: treatment 1 day after stroke; NN 0.4 mg/kg IP, hMSCs 1×10^6 cells iv; vs control. As to the method:
as §1

For experiment [3], the system named is brain-derived endothelial cells. Briefly: Endothelial tube formation, total tube length. It counts as cell-based. The note with it: vs control medium DMEM 1.4 (0.1); p<0.01. The source says:
The enhance induction of angiogenesis is also evident from in vitro studies of tubule formation in brain derived endothelial cells. […] The endothelial cells formed a network of capillary-like structures with numerous intercellular contacts.

The next experiment relates to rat VEGF. Briefly: Sandwich ELISA of VEGF secretion from endogenous cells after MCAo. It counts as in vivo. Particulars: vs MCAo control group. The procedure:
as §1
To obtain insight into the mechanisms associated with the induction of angiogenesis and neurogenesis, the fact that combination therapy induces the expression of neurotrophic and growth factors in brain was tested. Data are presented on the levels of vascular endothelial growth factor (VEGF) in brain after treatment with MSCs.
A general note: ELISA stands for enzyme-linked immunosorbent assay.

In experiment [4] the test system is BrdU positive cells in the subventricular zone. Description: BrdU positive cells in ipsilateral subventricular zone, combination study. It counts as in vivo, rat. Particulars: treatment 1 day after MCAo; NN 0.4 mg/kg IP, hMSCs 1×10^6 cells iv; PBS control 29.8±8.8. The procedure:
as §1
BrdU (50 mg/kg-ip) was injected daily for 14 days after treatment in all groups. BrdU is a thymidine analog that labels newly formed DNA and thereby identifies newly formed cells. […] BrdU found in the cytoplasm of macrophage-like cells were not counted. […] The percentage of BrdU reactive cells that express NeuN and GFAP proteins was approximately, 3%, 3% and 6%, respectively.

The subject of experiment [5] is cerebral vessels in the ischemic penumbra. Briefly: Angiogenesis after MCAo, combination study (BrdU endothelial cells, three-dimensional vessel analysis). Type of experiment: in vivo, rat. The note with it: vs control MCAo group. As to the method: as §1
Enlarged and thin walled vessels are termed “mother” vessels and have been found under conditions of cerebral ischemic angiogenesis.
FIGS. 11B and C are computer generated three-dimensional images derived from the original images. Different colors in FIG. 11B represent individual vessels, which were not connected to each other. Green and red colors in FIG. 11C code for diameter of blood vessels less then 7.5 μm (red) and larger then 7.5 μm (green), respectively. […] Enlarged vessels can develop into capillaries after ischemia.

In experiment [6] the test system is rats subjected to middle cerebral artery occlusion (MCAo). Briefly: Volume of cerebral infarction after MCAo, combination study. It counts as in vivo, rat. Particulars: treatment 1 day after MCAo; NN 0.4 mg/kg IP, hMSCs 1×10^6 cells iv; no significant reduction vs PBS. The procedure: as §1
No significant reduction of volume of ischemic damage was detected in rats with hMSC (30.7±6.2%) or NONOate ([…]) and combination hMSCs with NONOate (28.7±6.7%) treatment, compared with control rats subjected to MCAo with PBS ([…]), hMSCs were identified immunohistochemically using an antibody specific for human chromosomes (MAB1281). Within the brain tissue, cells derived from hMSCs were characterized by MAB1281 staining. No MAB1281 positive cells were found in the non-hMSCs treated rats. MSCs identified by MAB1281 survived and were distributed throughout the damaged brain of recipient rats. […] The vast majority of MAB1281 positive hMSCs were located in the ischemic boundary zone.

The subject of experiment [7] is TuJ1-immunoreactive cells in the subventricular zone and striatum. Description: TuJ1 immunostaining of immature neurons after embolic MCA occlusion. Type of experiment: in vivo, rat. The procedure: Male Wistar rats weighing 320 to 380 g were used in the present study. The middle cerebral artery (MCA) was occluded by placement of an embolus at the origin of the MCA. […] Ischemic rats (n=9) were treated with the same volume of tap water as a control group. Functional tests were performed and body weight was measured before ischemia and at 4, 7, 14, 21, and 28 days after onset of MCA occlusion. All rats were killed 28 days after MCA occlusion. […] These rats were killed 1 hour after the last treatment for measurements of brain levels of cGMP. […] Reverse transcription (RT)-polymerase chain reaction (PCR) was performed to detect PDE5 in brain tissue. […] Reaction product was detected with the use of 3′3′-diaminobenzidine-tetrahydrochloride (DAB; Sigma), For ′III-tubulin (TuJ1) immunostaining, which identifies immature neurons, 12 coronal sections were incubated with the antibody against TuJ1 (1:1000) at 4° C. overnight and were then incubated with a biotinylated horse anti-mouse immunoglobulin antibody at room temperature for 30 minutes. […] BrdU-immunoreactive nuclei were counted on a computer monitor to improve visualization and in 1 focal plane to avoid oversampling. All BrdU-immunoreactive-positive nuclei were counted in both the ipsilateral and contralateral walls of the lateral ventricle of the subventricular zone and in the dentate gyrus. […]

In the case of `NCCN(CCN)/[N+]([O-])=N/O` [DETANONOate, (Z)-1-[N-(2-aminoethyl)-N-(2-ammonioethyl)aminio]diazen-1-ium-1,2-diolate], in experiment [1], the “NSS at 14 days” value is listed as “No significant difference”. In addition, in experiment [2], the “Adhesive-Removal test score at 14 days” value is “no significant improvement”. Besides, the Total tube length in experiment [3] was determined as 4.6±0.6 mm/mm^2. In the experiment on rat VEGF, the “VEGF secretion from endogenous cells (rat VEGF)” value was “did not show a significant increase”. Also, the “BrdU positive cells in the ipsilateral hemisphere subventricular zone” value in experiment [4] was 43.6±10.0 /section. Further, the “BrdU immunoreactive endothelial cells in enlarged vessels, ipsilateral hemisphere” value in experiment [5] is “significant (p<0.05) increase”. Besides, the “volume of ischemic damage” value in experiment [6] was determined as 32.2±62%.

As to `CCCc1nn(C)c2c(=O)[nH]c(-c3cc(S(=O)(=O)N4CCN(C)CC4)ccc3OCC)nc12` [Sildenafil], the “numbers of TuJ1-immunoreactive cells in the ipsilateral and contralateral subventricular zones” value in experiment [7] (sildenafil 2 or 5 mg/kg, 28 days after ischemia, vs control rats) is recorded as “significantly (P=0.05) increased numbers of TuJ1-immunoreactive cells”. In addition, the “number of TuJ1 cells in the ipsilateral striatum” value in experiment [7] (sildenafil, vs contralateral hemisphere and ipsilateral striatum of control rats) is on record as “significantly increased the number of TuJ1 cells”.

The values are drawn from patent publication US20120009152A1, “NITRIC OXIDE DONORS FOR TREATMENT OF DISEASE AND INJURY” (priority 2002, published 2012).
